Measured values as given in patent US8231888B2, “Isoxazolines for controlling invertebrate pests” (priority 2005, dated 2012).

Assays:
Assay type in all cases: in vivo
[1] = system: diamondback moth (Plutella xylostella); test: Test A: control of diamondback moth on radish plant, foliar spray; details: 6 days, 25° C.
From the text: For evaluating control of diamondback moth (Plutella xylostella) the test unit consisted of a small open container with a 12-14-day-old radish plant inside. This was pre-infested with about 50 neonate larvae that were dispensed into the test unit via corn cob grits using a bazooka inoculator. The larvae moved onto the test plant after being dispensed into the test unit.
(§1) Test compounds were formulated using a solution containing 10% acetone, 90% water and 300 ppm X-77™ Spreader Lo-Foam Formula non-ionic surfactant containing alkylarylpolyoxyethylene, free fatty acids, glycols and isopropanol (Loveland Industries, Inc. Greeley, Colo., USA). The formulated compounds were applied in 1 mL of liquid through a SUJ2 atomizer nozzle with 1/8 JJ custom body (Spraying Systems Co. Wheaton, Ill., USA) positioned 1.27 cm (0.5 inches) above the top of each test unit. All experimental compounds in these tests were sprayed at 250 and/or 50 ppm, and the test was replicated three times. After spraying of the formulated test compound, each test unit was allowed to dry for 1 h and then a black, screened cap was placed on top. The test units were held for 6 days in a growth chamber at 25° C. and 70% relative humidity. Plant feeding damage was then visually assessed based on foliage consumed and a pest mortality rating was also counted and calculated for each test unit.

[2] = system: fall armyworm (Spodoptera frugiperda); test: Test B: control of fall armyworm on corn (maize) plant, foliar spray
Experimental: as §1
For evaluating control of fall armyworm (Spodoptera frugiperda) the test unit consisted of a small open container with a 4-5-day-old corn (maize) plant inside. This was pre-infested (using a core sampler) with 10-15 1-day-old larvae on a piece of insect diet. Test compounds were formulated and sprayed at 250 and/or 50 ppm as described for Test A and replicated three times. After spraying, the test units were maintained in a growth chamber and then the control efficacy was rated for each test unit as described for Test A.

[3] = system: western flower thrips (Frankliniella occidentalis); test: Test D: control of western flower thrips on Soleil bean plant, contact and/or systemic; details: asterisk: observed only at 250 ppm; 6 days, 25° C.
Experimental: as §1
For evaluating control of the western flower thrips (Frankliniella occidentalis) through contact and/or systemic means, the test unit consisted of a small open container with a 5-7 day old Soleil Bean plant inside. Test compounds were formulated and sprayed at 250 and/or 50 ppm, and the test was replicated three times as described for Test A. After spraying, the test units were allowed to dry for 1 hour and then 22-27 adult thrips were added to each unit and then a black, screened cap was placed on top. The test units were held for 6 days at 25° C. and 45-55% relative humidity. A mortality rating was assessed along with a plant damage rating for each test unit.

[4] = sprayed at 250 and/or 50 ppm, no asterisk (not limited to 250 ppm)
[5] = asterisk: observed only at 250 ppm

Row | Compound | control efficacy (20% or less feeding damage or 80% or more mortality) [1, 4] | control efficacy (20% or less feeding damage or 80% or more mortality) [2, 4] | further results
1 | NCCCCCCNC(=O)c1ccc(C2=NOC(c3cc(Cl)cc(Cl)c3)(C(F)(F)F)C2)c2ccccc12 (centres unmarked) [Compound 50] | very good to excellent levels of control efficacy |  | 
2 | FC(F)(F)C1(c2cc(Cl)cc(Cl)c2)CC(c2ccc(C(=S)NCc3ccccn3)c3cccnc23)=NO1 (centres unmarked) [Compound 108] |  |  | control efficacy (20% or less feeding damage or 80% or more mortality) [1, 5]: very good to excellent levels of control efficacy
3 | O=C(NCc1ccncc1)c1ccc(C2=NOC(c3cc(Cl)cc(Cl)c3)(C(F)(F)F)C2)c2ccccc12 (centres unmarked) [Compound 7] | very good to excellent levels of control efficacy | very good to excellent levels of control efficacy | 
4 | COC(=O)C(NC(=O)c1ccc(C2=NOC(c3cc(Cl)cc(Cl)c3)(C(F)(F)F)C2)c2ccccc12)c1ccccc1 (mixture of isomers) [Compound 29] | very good to excellent levels of control efficacy | very good to excellent levels of control efficacy | 
5 | O=C(N[C@H]1CCCc2ccccc21)c1ccc(C2=NOC(c3cc(Cl)cc(Cl)c3)(C(F)(F)F)C2)c2ccccc12 (some centres unmarked) [Compound 38] | very good to excellent levels of control efficacy |  | 
6 | O=C(NCC1CC1)c1ccc(C2=NOC(c3cc(Cl)cc(Cl)c3)(C(F)(F)F)C2)c2ccccc12 (centres unmarked) [Compound 20] | very good to excellent levels of control efficacy | very good to excellent levels of control efficacy | control efficacy (20% or less feeding damage or 80% or more mortality) [3]: very good to excellent levels of control efficacy
7 | O=C(NCc1ccccn1)c1ccc(C2=NOC(c3cc(Cl)cc(Cl)c3)(C(F)(F)F)C2)c2cnccc12 (centres unmarked) [Compound 105] | very good to excellent levels of control efficacy |  | 
8 | CNC(=O)c1ccc(C2=NOC(c3cc(Cl)cc(Cl)c3)(C(F)(F)F)C2)c2ccccc12 (centres unmarked) [Compound 12] | very good to excellent levels of control efficacy | very good to excellent levels of control efficacy | 
9 | O=C(NCc1ccccn1)c1ccc(C2=NOC(c3ccnc(Cl)c3)(C(F)(F)F)C2)c2ccccc12 (centres unmarked) [Compound 202] | very good to excellent levels of control efficacy | very good to excellent levels of control efficacy | 
10 | CCC(C)NC(=O)c1ccc(C2=NOC(c3cc(Cl)cc(Cl)c3)(C(F)(F)F)C2)c2ccccc12 (centres unmarked) [Compound 33] |  |  | control efficacy (20% or less feeding damage or 80% or more mortality) [3]: very good to excellent levels of control efficacy
11 | CC(NC(=O)c1ccc(C2=NOC(c3cc(Cl)cc(Cl)c3)(C(F)(F)F)C2)c2ccccc12)c1ccc(F)cc1 (mixture of isomers) [Compound 31] | very good to excellent levels of control efficacy | very good to excellent levels of control efficacy | 
12 | Cc1cc(C)cc(C2(C(F)(F)F)CC(c3ccc(C(=O)NCc4ccccn4)c4ccccc34)=NO2)c1 (centres unmarked) [Compound 22] | very good to excellent levels of control efficacy | very good to excellent levels of control efficacy | 
13 | CC(NC(=O)c1ccc(C2=NOC(c3cc(Cl)cc(Cl)c3)(C(F)(F)F)C2)c2ccccc12)c1ccc2ccccc2c1 (mixture of isomers) [Compound 27] | very good to excellent levels of control efficacy |  | 
14 | O=C(NCC(F)(F)F)c1ccc(C2=NOC(c3ccnc(Cl)c3)(C(F)(F)F)C2)c2ccccc12 (centres unmarked) [Compound 201] | very good to excellent levels of control efficacy | very good to excellent levels of control efficacy | 
15 | COC(=O)[C@H](C)NC(=O)c1ccc(C2=NOC(c3cc(Cl)cc(Cl)c3)(C(F)(F)F)C2)c2ccccc12 (some centres unmarked) [Compound 48] | very good to excellent levels of control efficacy |  | control efficacy (20% or less feeding damage or 80% or more mortality) [3]: very good to excellent levels of control efficacy
16 | NC(=O)c1ccc(C2=NOC(c3cc(Cl)cc(Cl)c3)(C(F)(F)F)C2)c2ccccc12 (centres unmarked) [Compound 36] | very good to excellent levels of control efficacy | very good to excellent levels of control efficacy | 
17 | CC(=O)NNC(=O)c1ccc(C2=NOC(c3cc(Cl)cc(Cl)c3)(C(F)(F)F)C2)c2ccccc12 (centres unmarked) [Compound 45] | very good to excellent levels of control efficacy |  | control efficacy (20% or less feeding damage or 80% or more mortality) [3]: very good to excellent levels of control efficacy
18 | O=C(NCC(F)(F)F)c1ccc(C2=NOC(c3cc(Cl)cc(Cl)c3)(C(F)(F)F)C2)c2ncccc12 (centres unmarked) [Compound 107] |  |  | control efficacy (20% or less feeding damage or 80% or more mortality) [1, 5]: very good to excellent levels of control efficacy; control efficacy (20% or less feeding damage or 80% or more mortality) [2, 5]: very good to excellent levels of control efficacy
19 | O=C(NCc1ccccn1)c1ccc(C2=NOC(c3cc(Cl)cc(Cl)c3)(C(F)(F)F)C2)c2ncccc12 (centres unmarked) [Compound 106] | very good to excellent levels of control efficacy |  | control efficacy (20% or less feeding damage or 80% or more mortality) [2, 5]: very good to excellent levels of control efficacy
20 | NCCNC(=O)c1ccc(C2=NOC(c3cc(Cl)cc(Cl)c3)(C(F)(F)F)C2)c2ccccc12 (centres unmarked) [Compound 47] | very good to excellent levels of control efficacy |  | control efficacy (20% or less feeding damage or 80% or more mortality) [3]: very good to excellent levels of control efficacy
21 | FC(F)(F)CNC(=S)c1ccc(C2=NOC(c3cc(Cl)cc(Cl)c3)(C(F)(F)F)C2)c2ncccc12 (centres unmarked) [Compound 109] |  |  | control efficacy (20% or less feeding damage or 80% or more mortality) [1, 5]: very good to excellent levels of control efficacy
22 | O=C(NCc1ccccn1)c1ccc(C2=NOC(c3cccc(Cl)c3)(C(F)(F)F)C2)c2ccccc12 (centres unmarked) [Compound 25] |  | very good to excellent levels of control efficacy | 
23 | CC(NC(=O)c1ccc(C2=NOC(c3cc(Cl)cc(Cl)c3)(C(F)(F)F)C2)c2ccccc12)c1ccc([N+](=O)[O-])cc1 (mixture of isomers) [Compound 28] | very good to excellent levels of control efficacy | very good to excellent levels of control efficacy | 
24 | CC(NC(=O)c1ccc(C2=NOC(c3cc(Cl)cc(Cl)c3)(C(F)(F)F)C2)c2ccccc12)c1ccc(Cl)cc1 (mixture of isomers) [Compound 30] | very good to excellent levels of control efficacy | very good to excellent levels of control efficacy | 
25 | O=C(NCc1cccnc1)c1ccc(C2=NOC(c3cc(Cl)cc(Cl)c3)(C(F)(F)F)C2)c2ccccc12 (centres unmarked) [Compound 6] | very good to excellent levels of control efficacy | very good to excellent levels of control efficacy | 
26 | O=C(NCc1ccccn1)c1ccc(C2=NOC(c3cc(Cl)cc(Cl)c3)(C(F)(F)F)C2)c2cccnc12 (centres unmarked) [Compound 103, 5-[5-(3,5-dichlorophenyl)-4,5-dihydro-5-(trifluoromethyl)-3-isoxazolyl]-N-(2-pyridinylmethyl)-8-quinolinecarboxamide] | very good to excellent levels of control efficacy | very good to excellent levels of control efficacy | 
27 | CCN(C)C(=O)c1ccc(C2=NOC(c3cc(Cl)cc(Cl)c3)(C(F)(F)F)C2)c2ccccc12 (centres unmarked) [Compound 9] | very good to excellent levels of control efficacy | very good to excellent levels of control efficacy | 
28 | O=C(O)CNC(=O)c1ccc(C2=NOC(c3cc(Cl)cc(Cl)c3)(C(F)(F)F)C2)c2ccccc12 (centres unmarked) [Compound 43] | very good to excellent levels of control efficacy |  | 
29 | O=C(NCc1ccccn1)c1ccc(C2=NOC(c3ccc(Cl)c(Cl)c3)(C(F)(F)F)C2)c2ccccc12 (centres unmarked) [Compound 23] | very good to excellent levels of control efficacy | very good to excellent levels of control efficacy | 
